This passage reports inhibition of growth and IC50 results from ChEMBL document CHEMBL4390660, “Synthesis and biological evaluation of marine alkaloid-oriented β-carboline analogues” (Eur J Med Chem, 2019).

The subject of assay [1] is HepG2. The assay can be described thus: Cytotoxicity against human HepG2 cells assessed as growth inhibition at 40 ug/mL after 72 hrs by MTT assay. The class given is functional. Conditions: HepG2, 72 h, read-out: GI.
The test system of assay [2] is HepG2. The assay can be described thus: Cytotoxicity against human HepG2 cells assessed as growth inhibition after 72 hrs by MTT assay. The class given is functional, cell-based. Conditions: HepG2, 72 h.
Assay [3] is described as follows: Cytotoxicity against human A875 cells assessed as growth inhibition at 40 ug/mL after 72 hrs by MTT assay. The class given is functional. The note with it: A875, 72 h, read-out: GI.
The nature of assay [4]: Cytotoxicity against human A875 cells assessed as growth inhibition after 72 hrs by MTT assay. The class given is functional, cell-based. The note with it: A875, 72 h.
The nature of assay [5]: Cytotoxicity against African green monkey MARC145 cells assessed as growth inhibition at 40 ug/mL after 72 hrs by MTT assay. The class given is functional. Conditions: Chlorocebus aethiops, MARC145, 72 h; read-out: GI.
In assay [6] the test system is SGC-7901. Kind of assay: Cytotoxicity against human SGC7901 cells assessed as growth inhibition at 40 ug/mL after 72 hrs by MTT assay. The class given is functional. Conditions: SGC-7901, 72 h, read-out: GI.
A short description of assay [7]: Cytotoxicity against African green monkey MARC145 cells assessed as growth inhibition after 72 hrs by MTT assay. Conditions: Chlorocebus aethiops, MARC145, 72 h. The class given is functional, cell-based.
Assay [8] concerns SGC-7901. The assay can be described thus: Cytotoxicity against human SGC7901 cells assessed as growth inhibition after 72 hrs by MTT assay. The note with it: SGC-7901, 72 h. The class given is functional, cell-based.

With `O=C(NCc1cccnc1)c1cc2c([nH]c3ccccc32)c(C(=O)c2c[nH]c3ccccc23)n1`, the inhibition of growth at 40 µg/mL in the assay with HepG2 [1] is 82.8%; in assay [3] it was 74.2%; in assay [5], 73.8%; in the assay with SGC-7901 [6], 70.1%. Moreover, the IC50 is 18.5 µM in the assay on HepG2 [2], 25.2 µM in assay [4], 20.8 µM in assay [7] and 33.1 µM in the assay on SGC-7901 [8].

In the case of `COc1cc(CNC(=O)c2cc3c([nH]c4ccccc43)c(C(=O)c3c[nH]c4ccccc34)n2)ccc1O`, the inhibition of growth at 40 µg/mL came out at 80.9% in the assay with HepG2 [1], 81.7% in assay [3], 79.1% in assay [5] and 83.1% with SGC-7901 [6]. Also, the IC50 with HepG2 [2] was determined as 11.1 µM; in assay [4] it was 8.47 µM; in assay [7] it was 21.8 µM; in the assay with SGC-7901 [8] it was 16.2 µM.

Regarding `O=C(c1c[nH]c2ccccc12)c1nccc2c1[nH]c1ccccc12`, the inhibition of growth at 40 µg/mL was 30.5% in the assay on HepG2 [1], 59.1% in assay [3], 34.6% in assay [5] and 43.2% in the assay with SGC-7901 [6]. In addition, the IC50 in the assay with HepG2 [2] was > 120 µM; in assay [4] it was 75.8 µM; in assay [7], > 120 µM; in the assay on SGC-7901 [8], > 120 µM.

On to `O=C(NCCc1cccc(O)c1)c1cc2c([nH]c3ccccc32)c(C(=O)c2c[nH]c3ccccc23)n1`, for which the inhibition of growth at 40 µg/mL with HepG2 [1] came out at 86.9%; in assay [3], 87.5%; in assay [5], 83.2%; with SGC-7901 [6], 88.3%. For the same molecule, the IC50 with HepG2 [2] is 8.63 µM; in assay [4] it was 11.9 µM; in assay [7], 13.8 µM; in the assay with SGC-7901 [8] it was 17.7 µM.

`COC(=O)C(CO)NC(=O)c1cc2c([nH]c3ccccc32)c(C(=O)c2c[nH]c3ccccc23)n1` (stereo not given): the inhibition of growth at 40 µg/mL in the assay on HepG2 [1] worked out at 79%; in assay [3] it was 83.9%; in assay [5], 83.2%; with SGC-7901 [6] it was 82.7%. Besides, the IC50 came to 9.99 µM with HepG2 [2], 10.5 µM in assay [4], 16.3 µM in assay [7] and 14.3 µM with SGC-7901 [8].

On to `O=C(NCCc1c[nH]c2ccccc12)c1cc2c([nH]c3ccccc32)c(C(=O)c2c[nH]c3ccccc23)n1`, for which the inhibition of growth at 40 µg/mL was found to be 74.4% in the assay on HepG2 [1], 77.8% in assay [3], 67% in assay [5] and 76.6% in the assay on SGC-7901 [6]. The IC50 stood at 41 µM with HepG2 [2], 50.4 µM in assay [4], 44.1 µM in assay [7] and 38.6 µM with SGC-7901 [8].

As to `COc1cccc(CCNC(=O)c2cc3c([nH]c4ccccc43)c(C(=O)c3c[nH]c4ccccc34)n2)c1`, the inhibition of growth at 40 µg/mL in the assay with HepG2 [1] came to 40.1%; in assay [3], 16.6%; in assay [5] it was 48.4%; with SGC-7901 [6] it was 39.3%. For the same molecule, the half-maximal inhibitory concentration (IC50) (with HepG2 [2]; in assay [4]; in assay [7]; in the assay on SGC-7901 [8]) was > 80 µM each time.

With `O=C(NCCc1ccccc1)c1cc2c([nH]c3ccccc32)c(C(=O)c2c[nH]c3ccccc23)n1`, the inhibition of growth at 40 µg/mL in the assay on HepG2 [1] came out at 82.3%; in assay [3], 77.1%; in assay [5] it was 79.8%; with SGC-7901 [6], 84.5%. The IC50 in the assay with HepG2 [2] is 19.8 µM; in assay [4], 44.8 µM; in assay [7] it was 25.9 µM; with SGC-7901 [8], 23 µM.

As for `O=C(NCc1ccccc1)c1cc2c([nH]c3ccccc32)c(C(=O)c2c[nH]c3ccccc23)n1`, the inhibition of growth at 40 µg/mL turned out to be 77.3% in the assay on HepG2 [1], 75.5% in assay [3], 67.4% in assay [5] and 79% in the assay on SGC-7901 [6]. Further, the IC50 in the assay on HepG2 [2] amounted to 36.2 µM; in assay [4] it was 56.4 µM; in assay [7] it was 42.8 µM; in the assay with SGC-7901 [8], 39.9 µM.

Regarding `O=C(NCc1ccc(F)cc1)c1cc2c([nH]c3ccccc32)c(C(=O)c2c[nH]c3ccccc23)n1`, the inhibition of growth at 40 µg/mL amounted to 73.9% in the assay on HepG2 [1], 68.1% in assay [3], 63.8% in assay [5] and 78.8% in the assay on SGC-7901 [6]. The IC50 in the assay on HepG2 [2] stood at 39 µM; in assay [4], 63.1 µM; in assay [7], 55.1 µM; with SGC-7901 [8], 34.5 µM.

As to `CS(=O)(=O)CCNC(=O)c1cc2c([nH]c3ccccc32)c(C(=O)c2c[nH]c3ccccc23)n1`, the inhibition of growth at 40 µg/mL in the assay on HepG2 [1] was determined as 87.3%; in assay [3], 87.9%; in assay [5], 90.2%; with SGC-7901 [6] it was 88.5%. The IC50 is 7.69 µM in the assay with HepG2 [2], 8.43 µM in assay [4], 7.19 µM in assay [7] and 6.82 µM in the assay on SGC-7901 [8].

Turning to `O=C(Nc1ccc(F)cc1)c1cc2c([nH]c3ccccc32)c(C(=O)c2c[nH]c3ccccc23)n1`, the inhibition of growth at 40 µg/mL in the assay on HepG2 [1] is 34.8%; in assay [3], 20.7%; in assay [5] it was 47.5%; in the assay with SGC-7901 [6], 34%. Also, the IC50 (in the assay on HepG2 [2]; in assay [4]; in assay [7]; in the assay on SGC-7901 [8]) was > 85 µM each time.

As to `COc1ccc(NC(=O)c2cc3c([nH]c4ccccc43)c(C(=O)c3c[nH]c4ccccc34)n2)cc1`, the inhibition of growth at 40 µg/mL in the assay with HepG2 [1] was 44.8%; in assay [3] it was 72.1%; in assay [5], 42%; in the assay on SGC-7901 [6] it was 41.2%. For the same molecule, the IC50 in the assay on HepG2 [2] was > 85 µM; in assay [4], 65.4 µM; in assay [7], > 85 µM; in the assay with SGC-7901 [8], > 85 µM.

`O=c1[nH]cc(F)c(=O)[nH]1` [FLUOROURACIL]: the inhibition of growth at 40 µg/mL was found to be 72.6% in the assay on HepG2 [1], 61% in assay [3], 66.7% in assay [5] and 79.9% in the assay with SGC-7901 [6]. The IC50 in the assay with HepG2 [2] amounted to 66.4 µM; in assay [4] it was 62.1 µM; in assay [7], 116 µM; in the assay on SGC-7901 [8] it was 53.6 µM.

Consider `Cc1ccc(CNC(=O)c2cc3c([nH]c4ccccc43)c(C(=O)c3c[nH]c4ccccc34)n2)cc1`, for which the inhibition of growth at 40 µg/mL is 63.9% in the assay with HepG2 [1], 27% in assay [3], 55% in assay [5] and 64% in the assay on SGC-7901 [6]. Also, the IC50 is 65.3 µM with HepG2 [2], > 85 µM in assay [4], 73.2 µM in assay [7] and 66 µM in the assay with SGC-7901 [8].

As for `O=C(NCCc1ccc(F)cc1)c1cc2c([nH]c3ccccc32)c(C(=O)c2c[nH]c3ccccc23)n1`, the inhibition of growth at 40 µg/mL worked out at 72.4% in the assay on HepG2 [1], 33.9% in assay [3], 63% in assay [5] and 76.7% with SGC-7901 [6]. Moreover, the IC50 in the assay on HepG2 [2] is 38.5 µM; in assay [4], > 80 µM; in assay [7] it was 48.8 µM; with SGC-7901 [8] it was 34 µM.

`COC(=O)c1cc2c([nH]c3ccccc32)c(C(=O)c2c[nH]c3ccccc23)n1`: the inhibition of growth at 40 µg/mL came out at 62.7% in the assay with HepG2 [1], 36.8% in assay [3], 35.9% in assay [5] and 48.6% in the assay with SGC-7901 [6]. Also, the IC50 (in the assay on HepG2 [2]; in assay [4]; in assay [7]; with SGC-7901 [8]) was > 100 µM each time.

On to `COc1ccc(CCNC(=O)c2cc3c([nH]c4ccccc43)c(C(=O)c3c[nH]c4ccccc34)n2)cc1OC`, for which the inhibition of growth at 40 µg/mL in the assay with HepG2 [1] stood at 31.7%; in assay [3], 0%; in assay [5], 38.4%; with SGC-7901 [6] it was 22.1%. In addition, the IC50 (in the assay on HepG2 [2]; in assay [4]; in assay [7]; in the assay with SGC-7901 [8]) was > 75 µM throughout.

Consider `O=C(O)c1cc2c([nH]c3ccccc32)c(C(=O)c2c[nH]c3ccccc23)n1`, for which the inhibition of growth at 40 µg/mL with HepG2 [1] was determined as 78.4%; in assay [3], 72.2%; in assay [5] it was 72%; with SGC-7901 [6], 63%. Besides, the IC50 in the assay on HepG2 [2] worked out at 51.8 µM; in assay [4], 48.8 µM; in assay [7], 41.9 µM; in the assay on SGC-7901 [8] it was 67.7 µM.

For `O=C(NCc1ccccn1)c1cc2c([nH]c3ccccc32)c(C(=O)c2c[nH]c3ccccc23)n1`, the inhibition of growth at 40 µg/mL in the assay on HepG2 [1] came to 79.6%; in assay [3], 70.7%; in assay [5], 66.2%; with SGC-7901 [6], 69.5%. The IC50 was 26.3 µM in the assay on HepG2 [2], 42.5 µM in assay [4], 33.8 µM in assay [7] and 43.9 µM with SGC-7901 [8].
